Literature values in patent US20010000228A1, “Use of a modified baculovirus containing exogenous nucleic acid for the manufacture of a medicament for delivering said nucleic acid to the hepatocytes” (IMPERIAL COLLEGE INNOVATIONS LIMITED, priority 1997, published 2001).

Test system: HBV
Details: therapy against HBV

## Interferon α
  cases in which therapy is effective: around 30%
